Laboratory results reported in the NIST ThermoML archive (doi:10.1016/j.fluid.2014.04.002).

Assay: xn = mol fraction of the nth substance listed
Conditions: 101 kPa, Liquid; for viscosity: Concentric cylinders viscometry; for mass density: Vibrating tube method

CCOC(=O)C(C)O (stereo not drawn) [DL-ethyl lactate] + OCCCO
Conditions	mass density, 288.15 K [kg/m3]	mass density, 293.15 K [kg/m3]	mass density, 298.15 K [kg/m3]	mass density, 303.15 K [kg/m3]	viscosity, 288.15 K [mPa·s]	viscosity, 293.15 K [mPa·s]	viscosity, 298.15 K [mPa·s]	viscosity, 303.15 K [mPa·s]
x1 = 0.1001	1056.19	1052.84	1049.47	1046.08	51.26	40.04	31.54	25.3
x1 = 0.2001	1055.73	1052.12	1048.48	1044.83	38.55	30.14	23.97	19.39
x1 = 0.3	1054.58	1050.74	1046.87	1042.98	28.06	22.16	17.76	14.35
x1 = 0.3998	1053.41	1049.3	1045.13	1041.02	20.15	16.06	12.92	10.58
x1 = 0.4996	1051.81	1047.46	1043.1	1038.71	14.63	11.78	9.585	7.942
x1 = 0.5997	1049.85	1045.28	1040.69	1036.07	10.55	8.579	7.071	5.912
x1 = 0.7	1047.67	1042.88	1038.07	1033.23	7.714	6.35	5.296	4.482
x1 = 0.8	1045.16	1040.14	1035.11	1030.05	5.639	4.704	3.974	3.405
x1 = 0.8997	1042.56	1037.34	1032.1	1026.83	4.327	3.583	3.071	2.661
x1 = 1	1039.28	1033.84	1028.39	1022.92	3.207	2.75	2.39	2.097
